The results in this text go back to article PMC11227190, “Interaction mechanism of oseltamivir phosphate with bovine serum albumin: multispectroscopic and molecular docking study” (BMC Chemistry, 2024).

The structures appear in SMILES notation.

The target of the test is T1, bovine serum albumin (BSA) (Bos taurus, UniProt P02769).
T1 construct: gene ALB
The experiment in a line: intrinsic fluorescence quenching (double-log Stern-Volmer, binding constant K at […] K); supported by UV absorption, CD and warfarin probe displacement. As to conditions: read-out: K (10^4 L.mol^- 1) (converted).

T1 sequence (P02769 25-607): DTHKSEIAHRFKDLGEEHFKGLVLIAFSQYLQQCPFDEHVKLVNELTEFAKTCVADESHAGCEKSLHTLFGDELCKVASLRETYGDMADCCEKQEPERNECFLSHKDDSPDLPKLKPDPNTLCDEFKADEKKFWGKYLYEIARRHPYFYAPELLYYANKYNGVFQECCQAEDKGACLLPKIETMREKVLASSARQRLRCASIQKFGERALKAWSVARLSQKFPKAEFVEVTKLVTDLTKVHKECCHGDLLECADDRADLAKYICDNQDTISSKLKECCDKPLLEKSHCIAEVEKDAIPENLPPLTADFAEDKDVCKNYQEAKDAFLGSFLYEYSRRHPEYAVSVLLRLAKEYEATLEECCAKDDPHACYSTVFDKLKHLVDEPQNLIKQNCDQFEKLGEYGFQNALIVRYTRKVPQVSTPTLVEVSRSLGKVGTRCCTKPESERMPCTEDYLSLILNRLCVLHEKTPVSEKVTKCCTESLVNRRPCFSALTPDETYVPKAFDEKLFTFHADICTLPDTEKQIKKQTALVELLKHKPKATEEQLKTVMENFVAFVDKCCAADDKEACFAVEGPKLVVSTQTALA

`CCOC(=O)C1=C[C@@H](OC(CC)CC)[C@H](NC(C)=O)[C@@H](N)C1` [OP, (3R,4R,5 S)-4-acetamido-5-amino-3-(1-ethylepoxy)-1-cyclohexene-1-carboxylic acid ethyl ester phosphate]: the Kd was 47.8 µM.
